Experimental data as given in patent publication US20100121049A1, “INDENOISOQUINOLINONE ANALOGS AND METHODS OF USE THEREOF” (INOTEK PHARMACEUTICALS CORPORATION, priority 2007, published 2010).
Structures can show the parent of a compound that is named as a salt.

Biological target: T1, PARP (Mus musculus, UniProt P11103)
T1 construct: PARP Activity in Cultured Macrophages, Using a Whole-Cell Based Assay; host or cells: murine RAW macrophages
Assay: PARP activity in cultured macrophages, whole-cell based assay (3H-NAD+ incorporation after hydrogen peroxide)
Conditions: murine RAW macrophages; compound 1 hour prior to hydrogen peroxide (0.5 mM) for 25 minutes; PARP activity by 3H-NAD+
Experimental: Effect of Indenoisoquinolinone Analogs on PARP Activity in Cultured Macrophages, Using a Whole-Cell Based Assay
The murine RAW macrophages (ATCC, American Type Culture Collection, Manassas, Va.) were grown in RPMI […] (Invitrogen Life Technologies; Carlsbad, Calif.) medium supplemented with 10% heat-inactivated FBS, 2 mM L-glutamine, and 100 U/ml of penicillin and streptomycin. Cells, between passages 5 and 15, were seeded at a density of 250,000 cells/well in 12 well plates and allowed to grow 48 hours before use. Growth medium was changed on the day of use. Cells were treated with an Indenoisoquinolinone Analog diluted in a growth medium supplemented with 10% fetal bovine serum (FBS) for 1 hour prior to the addition of hydrogen peroxide (0.5 mM) for a further 25 minutes. For the measurement of PARP activity, media was removed and replaced with 0.5 ml of the assay buffer (56 mM HEPES-pH 7.5, 28 mM KCl, 28 mM NaCl, 2 mM MgCl2, 0.01% digitonin, and 0.5 μCi/m1 of ^3H-NAD^+) for 20 minutes. After aspirating the assay buffer, cells were lysed and transferred to eppendorf tubes containing 250 μl of 50% ice-cold trichloroacetic acid (TCA), which were then placed at 4° C. for 4 hours. Samples were centrifuged at 10,000 g for 10 minutes and supernatant removed. The pellets were washed twice with 500 μl of ice-cold 5% w/v TCA. The pellets were then solubilized in 250 μl of NaOH (0.1 M) containing 2% SDS overnight at 37° C. and the PARP activity was then determined by measuring the radioactivity incorporated using a Wallac scintillation counter. The solubilized protein (250 μl) was mixed with 5 ml of scintillation fluid (ScintiSafe Plus, Fisher Scientific) before being counted for 3 minutes. EC50 values were determined from a dose-response curve.

T1 sequence (P11103 whole entry): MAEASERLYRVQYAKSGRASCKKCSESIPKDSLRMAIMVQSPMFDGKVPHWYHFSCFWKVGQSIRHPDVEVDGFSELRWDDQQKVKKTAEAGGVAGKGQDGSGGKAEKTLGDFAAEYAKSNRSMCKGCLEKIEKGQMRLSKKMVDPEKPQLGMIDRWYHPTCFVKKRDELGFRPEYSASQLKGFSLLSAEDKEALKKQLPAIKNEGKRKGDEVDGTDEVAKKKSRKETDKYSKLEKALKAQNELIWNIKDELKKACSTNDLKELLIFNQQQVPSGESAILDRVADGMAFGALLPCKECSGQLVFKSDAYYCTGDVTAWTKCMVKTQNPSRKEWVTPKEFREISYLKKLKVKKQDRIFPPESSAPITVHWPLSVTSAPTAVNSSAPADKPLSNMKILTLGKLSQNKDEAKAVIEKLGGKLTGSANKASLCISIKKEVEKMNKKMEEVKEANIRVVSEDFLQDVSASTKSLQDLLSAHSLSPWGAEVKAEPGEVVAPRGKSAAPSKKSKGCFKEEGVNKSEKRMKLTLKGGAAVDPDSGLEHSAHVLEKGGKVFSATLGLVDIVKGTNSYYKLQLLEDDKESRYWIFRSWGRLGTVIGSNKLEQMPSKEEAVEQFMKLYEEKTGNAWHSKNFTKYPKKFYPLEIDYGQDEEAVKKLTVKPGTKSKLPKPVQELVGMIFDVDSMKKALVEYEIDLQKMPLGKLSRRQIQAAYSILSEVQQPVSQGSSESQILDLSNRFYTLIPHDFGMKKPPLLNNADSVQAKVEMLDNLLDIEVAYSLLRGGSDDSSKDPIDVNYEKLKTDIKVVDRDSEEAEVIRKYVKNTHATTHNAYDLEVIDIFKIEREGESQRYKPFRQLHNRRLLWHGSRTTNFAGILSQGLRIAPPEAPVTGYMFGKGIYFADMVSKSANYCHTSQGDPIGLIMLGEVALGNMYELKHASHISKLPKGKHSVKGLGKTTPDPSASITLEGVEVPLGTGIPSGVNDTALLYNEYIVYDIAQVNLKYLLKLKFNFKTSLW

Row | SMILES | EC50 [nM]
1 | CCCCN1CCN(Cc2ccc3c(c2)Cc2c-3[nH]c(=O)c3ccccc23)CC1 [IIIb-2, 9-[1-(4-Butylpiperazino)methyl]-5,6-dihydro-5-oxo-11-H-indeno[1,2-c]isoquinoline] | 25
2 | CC(C)(C)OC(=O)N1CCC(N(Cc2ccc3c(c2)Cc2c-3[nH]c(=O)c3ccccc23)C2CC2)CC1 [IIb-79, 9-{N-[4-(1-Boc-piperidyl)]-N-cyclopropylaminomethyl}-5,6-dihydro-5-oxo-11-H-indeno[1,2-c]isoquinoline] | > 60
3 | O=c1[nH]c2c(c3ccccc13)Cc1cc(CN3CCN(C4CCCCC4)CC3)ccc1-2 [Dihydrochloride salt of IIIb-14, 9-[1-(4-Cyclohexylpiperazino)methyl]-5,6-dihydro-5-oxo-11-H-indeno[1,2-c]isoquinoline dihydrochloride] | 20
4 | O=c1[nH]c2c(c3ccc(F)cc13)Cc1c(CNC3CCOCC3)cccc1-2 [Va-5, 3-fluoro-10-((tetrahydro-2H-pyran-4-ylamino)methyl)-6,11-dihydro-5H-indeno[1,2-c]isoquinolin-5-one] | 5
5 | O=c1[nH]c2c(c3ccccc13)Cc1c(CN3CCN(CC4CC4)CC3)cccc1-2 [IIIa-3, 10-[1-(4-Cyclopropylmethylpiperazino)methyl]-5,6-dihydro-5-oxo-11-H-indeno[1,2-c]isoquinoline] | 20
6 | O=c1[nH]c2c(c3ccccc13)Cc1c(CNCCN3CCCC3)cccc1-2 [IIIa-5, 10-[N-(2-Pyrollidinoethyl)aminomethyl}-5,6-dihydro-5-oxo-11-H-indeno[1,2-c]isoquinoline] | 40
7 | O=c1[nH]c2c(c3ccccc13)Cc1c(CNC3(CO)CCCC3)cccc1-2 [IIa-27, 10-{N-[1-(Hydroxymethyl)cyclopentyl]aminomethyl}-5,6-dihydro-5-oxo-11-H-indeno[1,2-c]isoquinoline] | < 10
8 | CCCCN1CCN(Cc2cccc3c2Cc2c-3[nH]c(=O)c3ccccc23)CC1 [IIIa-2, 10-[1-(4-Butylpiperazino)methyl]-5,6-dihydro-5-oxo-11-H-indeno[1,2-c]isoquinoline] | 25
9 | O=c1[nH]c2c(c3ccc(F)cc13)Cc1c(CNC3(CO)CCCC3)cc(F)cc1-2 [Va-10, 3,8-difluoro-10-((1-(hydroxymethyl)cyclopentylamino)methyl)-6,11-dihydro-5H-indeno[1,2-c]isoquinolin-5-one] | 3
10 | CCOCCN1CCN(Cc2ccc3c(c2)Cc2c-3[nH]c(=O)c3ccccc23)CC1 [IIIb-10, 9-{1-[4-(2-Ethoxyethyl)piperazino]methyl}-5,6-dihydro-5-oxo-11-H-indeno[1,2-c]isoquinoline] | 75
11 | O=c1[nH]c2c(c3ccccc13)Cc1c(CN3CCC4(CC3)OCCO4)cccc1-2 [IIa-14, 10-[(4,4-Ethylenedioxy-piperidino)methyl]-5,6-dihydro-5-oxo-11-H-indeno[1,2-c]isoquinoline] | 30
12 | C=CCN1CCN(Cc2cccc3c2Cc2c-3[nH]c(=O)c3ccccc23)CC1 [IIa-1, 10-[1-(4-Allylpiperazino)methyl]-5,6-dihydro-5-oxo-11-H-indeno[1,2-c]isoquinoline] | 20
13 | C=CCN1CCN(Cc2ccc3c(c2)Cc2c-3[nH]c(=O)c3ccccc23)CC1 [IIb-1, 9-[1-(4-Allylpiperazino)methyl]-5,6-dihydro-5-oxo-11-H-indeno[1,2-c]isoquinoline] | 45
14 | CC(C)N1CCN(Cc2ccc3c(c2)Cc2c-3[nH]c(=O)c3ccccc23)CC1 [IIIb-1, 9-[1-(4-iso-Propylpiperazino)methyl]-5,6-dihydro-5-oxo-11-H-indeno[1,2-c]isoquinoline] | 20
15 | O=c1[nH]c2c(c3ccccc13)Cc1cc(CN3CCC(F)(F)CC3)ccc1-2 [Methylsulfonate salt of IIIb-15, 9-[1-(4,4-Difluoropiperidino)methyl]-5,6-dihydro-5-oxo-11-H-indeno[1,2-c]isoquinoline methylsulfonate] | 55
16 | O=c1[nH]c2c(c3ccccc13)Cc1c(CN3CC=CCC3)cccc1-2 [IIIa-12, 10-[(3,4-Dehydropiperidino)methyl]-5,6-dihydro-5-oxo-11-H-indeno[1,2-c]isoquinoline] | 7
17 | O=c1[nH]c2c(c3ccccc13)Cc1c(CN3CCN(c4ncccn4)CC3)cccc1-2 [IIIa-8, 10-{1-[4-(2-Pyrimidyl)piperazino]methyl}-5,6-dihydro-5-oxo-11-H-indeno[1,2-c]isoquinoline] | 75
18 | O=c1[nH]c2c(c3ccccc13)Cc1c(CNCCCO)cccc1-2 [IIIa-4, 10-[N-1-(3-Hydroxypropyl)aminomethyl]-5,6-dihydro-5-oxo-11-H-indeno[1,2-c]isoquinoline] | 15

Row | SMILES | EC50 [nM]
19 | O=C(C1CC1)N1CCN(Cc2ccc3c(c2)Cc2c-3[nH]c(=O)c3ccccc23)CC1 [IIb-170, 9-{1-[4-(Cyclopropylcarbonyl)piperazino]methyl}-5,6-dihydro-5-oxo-11-H-indeno[1,2-c]isoquinoline] | 75
20 | C[C@@H]1CN(Cc2ccc3c(c2)Cc2c-3[nH]c(=O)c3ccccc23)C[C@H](C)N1 [IIIb-24, 9-[1-(3,5-Dimethylpiperazino)methyl]-5,6-dihydro-5-oxo-11-H-indeno[1,2-c]isoquinoline] | > 60
21 | CCC(C)n1c2cc(CN3CCC4(CC3)OCCO4)ccc2c2[nH]c(=O)c3ccccc3c21 (centres unmarked) [IIb-23] | 80
22 | O=c1[nH]c2c(c3cccc(Cl)c13)Cc1c(CNC3CCCC3)cccc1-2 [Va-1, 4-chloro-10-((cyclopentylamino)methyl)-6,11-dihydro-5H-indeno[1,2-c]isoquinolin-5-one] | > 100
23 | CN1CCCN(Cc2ccc3c(c2)Cc2c-3[nH]c(=O)c3ccccc23)CC1 [IIIb-13, 9-[1-(4-Methylhomopiperazino)methyl]-5,6-dihydro-5-oxo-11-H-indeno[1,2-c]isoquinoline] | 25
24 | CCC(=O)N1CCCN(Cc2ccc3c(c2)Cc2c-3[nH]c(=O)c3ccccc23)CC1 [IIb-118, 9-[(4-Propionyl-homopiperazino)methyl]-5,6-dihydro-5-oxo-11-H-indeno[1,2-c]isoquinoline hydrochloride] | 60
25 | O=c1[nH]c2c(c3ccccc13)Cc1cc(CN3CCCCCC3)ccc1-2 [IIIb-22, 9-(1-Homopiperidinomethyl)-5,6-dihydro-5-oxo-11-H-indeno[1,2-c]isoquinoline] | > 100
26 | CC(C)(C)OC(=O)N1CCN(Cc2ccc3c(c2)Cc2c-3[nH]c(=O)c3ccccc23)CC1 [IIIb-16, 9-[(4-tert-Butoxycarbonyl-piperazino)methyl]-5,6-dihydro-5-oxo-11-H-indeno[1,2-c]isoquinoline] | > 100
27 | O=c1[nH]c2c(c3ccccc13)Cc1c(CNC3(CO)CCCC3)cc(F)cc1-2 [Va-9, 8-fluoro-10-((1-(hydroxymethyl)cyclopentylamino)methyl)-6,11-dihydro-5H-indeno[1,2-c]isoquinolin-5-one] | 3
28 | O=c1[nH]c2c(c3ccccc13)Cc1cc(CN3CCN(CC4CC4)CC3)ccc1-2 [Dihydrochloride salt of IIIb-3, 9-[1-(4-Cyclopropylmethylpiperazino)methyl]-5,6-dihydro-5-oxo-11-H-indeno[1,2-c]isoquinoline dihydrochloride] | 10
29 | CC(C)(O)CN1CCN(Cc2ccc3c(c2)Cc2c-3[nH]c(=O)c3ccccc23)CC1 [IIIb-18, 9-[4-(2-Hydroxy-2-methyl-propyl-piperazino)methyl]-5,6-dihydro-5-oxo-11-H-indeno[1,2-c]isoquinoline dihydrochloride] | 75
30 | O=c1[nH]c2c(c3ccccc13)Cc1cc(CN3CCN(c4ncccn4)CC3)ccc1-2 [IIIb-8, 9-{1-[4-(2-Pyrimidyl)piperazino]methyl}-5,6-dihydro-5-oxo-11-H-indeno[1,2-c]isoquinoline] | 75
31 | O=c1[nH]c2c(c3c(F)cccc13)Cc1c(CNC3CCCC3)cccc1-2 [Va-7, 10-((cyclopentylamino)methyl)-1-fluoro-6,11-dihydro-5H-indeno[1,2-c]isoquinolin-5-one] | 5
32 | O=c1[nH]c2c(c3cccc(F)c13)Cc1c(CNC3CCCC3)cccc1-2 [Va-4, 10-((cyclopentylamino)methyl)-4-fluoro-6,11-dihydro-5H-indeno[1,2-c]isoquinolin-5-one] | 4
33 | O=c1[nH]c2c(c3ccccc13)Cc1cc(CN3CCN(C4CCCC4)CC3)ccc1-2 [IIIb-9, 9-[1-(4-Cyclopentylpiperazino)methyl]-5,6-dihydro-5-oxo-11-H-indeno[1,2-c]isoquinoline dihydrochloride] | 20
34 | CN(CCN1CCOCC1)Cc1ccc2c(c1)Cc1c-2[nH]c(=O)c2ccccc12 [IIIb-19] | 30
35 | CC(C)N1CCN(Cc2cccc3c2Cc2c-3[nH]c(=O)c3ccccc23)CC1 [IIIa-1, 10-[1-(4-iso-Propylpiperazino)methyl]-5,6-dihydro-5-oxo-11-H-indeno[1,2-c]isoquinoline] | 45
